Data reported in patent US20230310441A1, “TREATMENT FOR SCHIZOPHRENIA” (TAKEDA PHARMACEUTICAL COMPANY, priority 2020, published 2023).
Marks after values point to notes of the source that are not given here.

Tested on: endogenous dopamine release in the human brain
Test: [^11C]PHNO PET of endogenous dopamine release after d-AMPH challenge
Type: in vivo
Settings: for effect on [^11C]PHNO BPND: d-AMPH 0.5 mg/kg single oral dose, all ROI; for ΔBPND^AMPH Mean (SD), Ca / ΔBPND^AMPH Mean (SD), GP / ΔBPND^AMPH Mean (SD), Pu / ΔBPND^AMPH Mean (SD), SN / ΔBPND^AMPH Mean (SD), VSt: d-AMPH only scan
Experimental: A T1-weighted magnetic resonance imaging (MRI) scan of the brain, performed at screening, was used to obtain anatomical information required for PET data analysis. Each subject underwent three [^11C]PHNO PET scans, one at baseline, the second approximately 3 h after a single oral dose of dex-amphetamine (d-AMPH, 0.5 mg/kg), and the third approximately 5 h after a single oral dose of Compound (I) (20 or 40 mg) and 3 h after an oral dose of dex-amphetamine (d-APMH) (0.5 mg/kg) (FIG. 2).
Subjects were positioned in the PET scanner, after the insertion of a venous cannula in an antecubital or forearm vein. Soft padding and head restraints were used to minimize head movement during data acquisition. All dynamic [^11C]PHNO PET scans were acquired on Siemens Biograph 6 PET/CT scanners (Hi-Rez (PET/CT1) or a TruePoint with TrueV, Siemens Healthcare, Erlangen, Germany). All scans for a particular subject were acquired on the same scanner. A low-dose computed tomography (CT) scan was performed immediately before each PET study to estimate signal attenuation. Following an intravenous bolus injection of [^11C]PHNO, dynamic emission data were acquired for 90 min in 26 frames of increasing duration. The dynamic images were reconstructed using Fourier rebinning and a 2D filtered discrete inverse Fourier transform algorithm with 5 mm isotropic Gaussian filter on a 128×128 matrix with 2.6 zoom giving 2 mm isotropic voxels. Appropriate corrections were applied for attenuation, randoms, and scatter.
The primary set of ROIs defined were the ventral striatum (VSt), putamen (Pu) and cerebellum. […] The cerebellum was used as a reference region. An additional set of ROIs including the caudate nucleus (Ca), globus pallidus (GP) and substantia nigra (SN) was also evaluated.
Regional TAC data extracted from the PET images were fitted using a basis function implementation of the SRTM (Gunn et al., 1997) to estimate the binding potential relative to the non-displaceable component (BPND) for each PET scan, as a measure of specific binding (Innis et al., 2007).
Reduction in [^11C]-PHNO specific binding following a d-AMPH challenge (ΔBPND^APMH) was quantified as percent change in postdose BPND (BPND^AMPH) from baseline BPND (BPND^BL):
Reduction in [^11C]-PHNO specific binding following a combination of Compound (I) and d-AMPH (ΔBPND^APMH+C1) was quantified as percent change in postdose BPND (BPND^AMPH+C1) from baseline BPND (BPND^BL):
The effect of Compound (I) (ΔΔBPND) was quantified as the percent change BPND in ΔBPND^APMH+C1 compared to ΔBPND^APMH:
All statistical comparisons were conducted using Student's t-tests for each ROI, using paired tests for within subject comparisons, and unpaired tests for between group comparisons.

[1] = subjects of the 20 mg Compound (I) group
[2] = subjects of the 40 mg Compound (I) group

Structure (SMILES): C[C@H](N)Cc1ccccc1 [d-AMPH, Dextroamphetamine, reference compound]
- effect on [^11C]PHNO BPND: significant reduction in BPND
- effect on [^11C]PHNO BPND (listed as d-APMH): robust reduction of [^11C]PHNO BPND
- ΔBPND^AMPH Mean (SD), Ca (all subjects): 15.6 (5.7) * %
- ΔBPND^AMPH Mean (SD), GP (all subjects): 15.9 (7.7) * %
- ΔBPND^AMPH Mean (SD), Pu (all subjects): 21.6 (5.1) * %
- ΔBPND^AMPH Mean (SD), SN (all subjects): 27.8 (10.9) * %
- ΔBPND^AMPH Mean (SD), VSt (all subjects): 26.5 (7.7) * %
- ΔBPND^AMPH Mean (SD), Ca [1]: 17.8 (5.7) * %
- ΔBPND^AMPH Mean (SD), GP [1]: 17.6 (1.5) * %
- ΔBPND^AMPH Mean (SD), Pu [1]: 23.6 (4.6) * %
- ΔBPND^AMPH Mean (SD), SN [1]: 28.4 (9.0) * %
- ΔBPND^AMPH Mean (SD), VSt [1]: 25.4 (8.0) * %
- ΔBPND^AMPH Mean (SD), Ca [2]: 13.4 (5.3) * %
- ΔBPND^AMPH Mean (SD), GP [2]: 14.2 (11.1) * %
- ΔBPND^AMPH Mean (SD), Pu [2]: 19.6 (5.3) * %
- ΔBPND^AMPH Mean (SD), SN [2]: 27.2 (13.6) * %
- ΔBPND^AMPH Mean (SD), VSt [2]: 27.6 (8.2) * %
